In patent publication US20200087248A1, “Fluoroallylamine Derivative And Use Thereof” (SICHUAN KELUN-BIOTECH BIOPHARMACEUTICAL CO., LTD., priority 2017, published 2020):
Structures can show the parent of a compound that is named as a salt.

Tests used:
[1] = target: T1, VAP-1 in abdominal fat of mice (Mus musculus, UniProt O70423); experiment: Inhibition of the enzymatic activity of VAP-1 ex-vivo, abdominal fat after oral dosing; type: in vivo, BALBc mice; settings: abdominal fat collected after six hours; for inhibition at 0.5 mg/kg / inhibition at 2 mg/kg: mouse, read-out: Inhibition rate (%) against the enzymatic activity of VAP-1 (ex-vivo); for inhibition at 0.5 mg/kg: 0.5 mg/kg oral; for Inhibition rate (%) against the enzymatic activity of VAP-1 (ex-vivo) / inhibition at 2 mg/kg: 2 mg/kg oral
T1 construct: abdominal fat was collected and homogenized; from tissue; host or cells: abdominal fat of BALBc mice (homogenate supernatant)
T1 sequence (O70423 1-765): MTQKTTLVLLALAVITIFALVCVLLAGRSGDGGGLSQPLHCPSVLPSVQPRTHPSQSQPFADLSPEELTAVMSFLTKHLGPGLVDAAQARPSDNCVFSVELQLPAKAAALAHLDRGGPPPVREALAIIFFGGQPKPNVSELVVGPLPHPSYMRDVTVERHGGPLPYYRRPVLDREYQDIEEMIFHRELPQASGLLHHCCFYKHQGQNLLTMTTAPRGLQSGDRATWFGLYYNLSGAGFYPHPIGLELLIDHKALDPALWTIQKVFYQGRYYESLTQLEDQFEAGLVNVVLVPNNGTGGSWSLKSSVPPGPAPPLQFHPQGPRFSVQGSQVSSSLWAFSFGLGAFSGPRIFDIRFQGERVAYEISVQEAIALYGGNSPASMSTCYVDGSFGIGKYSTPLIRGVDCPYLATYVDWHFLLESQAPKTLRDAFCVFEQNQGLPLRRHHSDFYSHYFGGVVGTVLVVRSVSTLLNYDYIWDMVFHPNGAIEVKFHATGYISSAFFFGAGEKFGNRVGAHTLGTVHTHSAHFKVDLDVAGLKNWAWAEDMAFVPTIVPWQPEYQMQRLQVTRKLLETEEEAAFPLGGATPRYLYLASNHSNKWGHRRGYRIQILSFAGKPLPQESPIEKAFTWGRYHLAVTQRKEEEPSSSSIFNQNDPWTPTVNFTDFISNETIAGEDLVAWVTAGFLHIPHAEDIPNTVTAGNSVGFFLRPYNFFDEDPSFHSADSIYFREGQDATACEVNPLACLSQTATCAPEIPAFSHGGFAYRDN
Protocol: Inhibition Experiment Against the Enzymatic Activity (ex-vivo)
Tissue homogenate buffer solution (20 mM HEPES, pH 7.2, 1 mM EDTA, 250 mM sucrose, PMSF 0.2 mM)
(§1) Reaction buffer solution: 50 mM PBS, pH 7.4
(§2) Test kit: Amplex® Red Monoamine Oxidase Assay, Manufacturer: ThermoFisher
BALBc mice were administrated orally with different doses of the test compound, and the vehicle group was used as the control group. After six hours, abdominal fat was collected and homogenized at 1:20 (w/v) with the pre-cooled homogenate buffer solution, and thereafter, the homogenate was centrifuged at 10,000 g and 4° C. or 10 minutes, the supernatant was collected and stored at -80° C. for further use.
A test sample was diluted with the reaction buffer solution and successively added with the inhibition solution A: 1 μM Clorgyline+1 μM pargylin, to inhibit the activities of MAO-A and MAO-B, and the inhibition solution B: 1 μM Clorgyline+1 μM Pargylin+1 μM Mofegiline as the blank control, and after being incubated at room temperature for 20 min, 500 μM benzylamine hydrochloride, 1 U/mL HRP and 200 μM Amplex Red reagent were added to start the reaction. By referring to the method in “Experiment of inhibiting the enzymatic activity of VAP-1”, relative activity of each dose group was calculated, wherein the ratio of the fluorescent signal to reaction time in the linear range is the reaction rate, and the vehicle group is the positive control, thereby to study the inhibition of the compound against the enzymatic activity of VAP-1 in abdominal fat of mice.

[2] = target: T2, VAP-1 (Homo sapiens, UniProt Q16853); experiment: Inhibition of the enzymatic activity of VAP-1 in vitro (Amplex Red); type: biochemical; settings: VAP-1 protein about 20 nM, 10 min pre-incubation, benzylamine substrate; read-out: IC50, inhibition against the enzymatic activity of VAP-1
T2 construct: purchased R&D Systems
T2 sequence (Q16853 1-763): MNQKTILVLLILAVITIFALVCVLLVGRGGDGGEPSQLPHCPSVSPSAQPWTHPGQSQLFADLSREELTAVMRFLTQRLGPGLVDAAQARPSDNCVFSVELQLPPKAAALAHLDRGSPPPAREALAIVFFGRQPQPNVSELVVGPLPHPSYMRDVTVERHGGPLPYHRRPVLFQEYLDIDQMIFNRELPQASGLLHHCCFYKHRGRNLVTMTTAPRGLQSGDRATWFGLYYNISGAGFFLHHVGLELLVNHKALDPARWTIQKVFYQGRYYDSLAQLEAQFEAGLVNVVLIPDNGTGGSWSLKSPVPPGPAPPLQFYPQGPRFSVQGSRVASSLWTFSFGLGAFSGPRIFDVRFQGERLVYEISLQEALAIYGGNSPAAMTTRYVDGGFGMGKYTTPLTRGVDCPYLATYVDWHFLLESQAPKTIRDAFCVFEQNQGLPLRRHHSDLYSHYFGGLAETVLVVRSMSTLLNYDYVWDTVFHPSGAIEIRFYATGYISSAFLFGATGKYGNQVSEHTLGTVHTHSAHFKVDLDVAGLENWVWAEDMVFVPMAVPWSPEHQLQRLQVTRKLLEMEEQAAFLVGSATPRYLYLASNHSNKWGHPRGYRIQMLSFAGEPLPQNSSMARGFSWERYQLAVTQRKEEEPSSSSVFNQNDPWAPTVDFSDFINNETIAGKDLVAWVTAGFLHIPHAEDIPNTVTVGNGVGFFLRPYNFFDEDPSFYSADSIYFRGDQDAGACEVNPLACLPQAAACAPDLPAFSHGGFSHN
Protocol: Inhibition Experiment Against the Enzymatic Activity of VAP-1(Vascular Adhesion Protein 1) in vitro
as §2, §1
Enzyme: VAP-1, Manufacturer: R&D Systems
VAP-1 protein (about 20 nM) and different concentrations of the test compound were pre-incubated at room temperature for 10 minutes, followed by an addition of […] benzylamine hydrochloride, 1 U/mL HRP and 200 μM Amplex Red reagent according to the specification of the test kit to start the reaction. The reaction plate was placed in the enzyme marker, and in kinetic mode, fluorescence signals were measured at Ex/Em=540/590 nm. The relative inhibition activity of each concentration group was calculated, wherein the ratio (slope) of fluorescence signal to reaction time in the linear range is the reaction rate, the vehicle group (DMSO) is the negative control, and the reaction buffer solution group (without enzymes and the compounds) is the blank control. The half inhibition concentration (IC50) of the compound was calculated according to four-parameter model fitting curve.

[3] = target: T3, hERG (Homo sapiens, UniProt Q12809); experiment: hERG fluorescence polarization inhibition experiment; settings: hERG cell membrane, 25° C. 2 hours, read-out: hERG (IC50 range, competitive binding vs tracer)
T3 construct: purchased ThermoFisher; host or cells: hERG cell membrane supplied with the kit
T3 sequence (Q12809 whole entry): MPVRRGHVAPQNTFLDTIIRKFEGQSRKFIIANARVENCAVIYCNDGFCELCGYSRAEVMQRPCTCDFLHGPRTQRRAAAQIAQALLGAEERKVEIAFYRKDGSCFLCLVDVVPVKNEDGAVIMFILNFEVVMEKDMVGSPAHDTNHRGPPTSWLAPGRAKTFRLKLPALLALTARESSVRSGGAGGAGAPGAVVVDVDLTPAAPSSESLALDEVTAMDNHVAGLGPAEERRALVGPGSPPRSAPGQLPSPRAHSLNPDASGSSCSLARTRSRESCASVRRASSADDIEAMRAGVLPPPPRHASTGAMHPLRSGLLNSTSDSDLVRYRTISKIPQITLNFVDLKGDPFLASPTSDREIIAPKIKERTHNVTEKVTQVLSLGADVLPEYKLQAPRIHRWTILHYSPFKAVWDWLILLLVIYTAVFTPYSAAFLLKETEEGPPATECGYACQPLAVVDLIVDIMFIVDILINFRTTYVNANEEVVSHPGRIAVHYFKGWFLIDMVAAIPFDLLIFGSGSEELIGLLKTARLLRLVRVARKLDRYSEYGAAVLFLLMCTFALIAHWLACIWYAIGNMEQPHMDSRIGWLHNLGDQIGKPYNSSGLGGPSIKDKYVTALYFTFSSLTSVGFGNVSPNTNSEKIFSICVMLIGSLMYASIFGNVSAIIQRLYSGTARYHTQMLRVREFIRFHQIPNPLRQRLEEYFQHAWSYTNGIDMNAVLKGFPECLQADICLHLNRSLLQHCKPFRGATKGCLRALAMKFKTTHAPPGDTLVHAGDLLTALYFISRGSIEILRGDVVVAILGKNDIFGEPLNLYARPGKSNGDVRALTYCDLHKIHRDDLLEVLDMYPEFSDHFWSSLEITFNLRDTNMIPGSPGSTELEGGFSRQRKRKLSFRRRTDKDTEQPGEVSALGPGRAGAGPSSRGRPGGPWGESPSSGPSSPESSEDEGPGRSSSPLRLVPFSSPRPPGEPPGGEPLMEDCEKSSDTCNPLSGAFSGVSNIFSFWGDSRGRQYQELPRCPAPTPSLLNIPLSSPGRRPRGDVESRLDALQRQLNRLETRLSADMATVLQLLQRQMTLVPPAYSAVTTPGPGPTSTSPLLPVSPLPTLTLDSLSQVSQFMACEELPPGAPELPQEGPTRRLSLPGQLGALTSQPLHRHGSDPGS
Protocol: hERG (Ether-a-go-go-related Gene Potassium Channel) Inhibition Experiment
Reagent: Predictor™ hERG Fluorescence Polarization Assay Kit, Manufacturer: ThermoFisher
The above test kit was used to evaluate the potential of the compound for inducing heart QT prolongation. According to the method as indicated in the specification of the test kit, the test compound, the positive control (E4031) and negative control (Experimental buffer solution) in the kit were added to a microwell plate containing hERG cell membrane, and then a tracer having high affinity to hERG was added. The microwell plate was then incubated at 25° C. for 2 hours, a BMG PHAREStar polyfunctional enzyme marker was used to test the variations in the fluorescent polarization value. By calculating the percent inhibition rates (%) at different concentrations, the range of the half inhibition concentration (IC50) was determined:
Percent inhibition rate (%)=(1-(mP of the test compound-mP of 30 μM E4031)/(mP of experimental buffer solution-mP of 30 μM E4031))*100.

| Compound | inhibition at 0.5 mg/kg [1] | IC50 [2] | IC50 [3] | Inhibition rate (%) against the enzymatic activity of VAP-1 (ex-vivo) [1] | inhibition at 2 mg/kg [1] |
| --- | --- | --- | --- | --- | --- |
| NC/C(=C/F)COc1ccc(C(=O)Nc2ccccc2)cc1 [TM1-Z, (Z)-N-phenyl-4-((2-aminomethyl-3-fluoroallyl)oxy)-benzamide trifluoroacetate] | 93.3 ± 5.4% | 0.7 ± 0.1 nM | > 10000 nM | – | – |
| NCC(=CF)COc1ccc2c(c1)CCNC2=O.O=C(O)C(F)(F)F [TM26, 6-((2-aminomethyl-3-fluoroallyl)oxy)-3,4-dihydroisoquinolin-1(2H)-one trifluoroacetate] | – | 5.8 ± 1 nM | > 30000 nM | completely inhibited | 112 ± 7.1% |
| NCC(=CF)COc1ccc2c(c1)CN(Cc1ccc(Cl)cc1)C2=O [TM33, 5-((2-aminomethyl-3-fluoroallyl)oxy)-2-(4-chlorobenzyl)isoindolin-1-one] | – | 3.3 ± 0.2 nM | – | completely inhibited | 105 ± 9.1% |
| NC/C(=C/F)COc1ccc(-c2ncccn2)cc1 [TM39-Z, (Z)-2-(4-(2-pyrimidyl)phenoxymethyl)-3-fluoroallylamine trifluoroacetate] | 93.2 ± 3.9% | 0.7 ± 0.1 nM | > 10000 nM | – | – |
| NCC(=CF)COc1ccc(-c2nc3ccc(Cl)cc3s2)cc1 [TM41, 2-(4-(6-chloro-benzothiazol-2-yl)phenoxymethyl)-3-fluoroallylamine trifluoroacetate] | – | 4.8 ± 0.7 nM | – | – | 96.1 ± 17.4% |
| NCC(=CF)COc1ccc(-c2nc3ccccc3[nH]2)cc1.O=C(O)C(F)(F)F [TM42, 2-(4-(1H-benzoimidazol-2-yl)phenoxymethyl)-3-fluoroallylamine trifluoroacetate] | – | 1.6 ± 0.2 nM | > 10000 nM | completely inhibited | 106 ± 8.4% |
| NCC(=CF)COc1ccc(C(=O)N2CCC(c3ccccc3)CC2)cc1 [TM44, (4-((2-aminomethyl-3-fluoroallyl)oxy)phenyl)-(4-phenylpiperidin-1-yl)methanone trifluoroacetate] | – | 3.4 ± 0.4 nM | > 10000 nM | – | 95.8 ± 6.2% |
| NCC(=CF)COc1ccc(C(=O)N2CCc3ccccc3C2)cc1 [TM45, (4-((2-aminomethyl-3-fluoroallyl)oxy)phenyl)-(3,4-dihydroisoquinolin-2(1H)-yl)methanone trifluoroacetate] | – | 0.9 ± 0.1 nM | > 10000 nM | – | 91.9 ± 6.4% |
| NCC(=CF)COc1ccc(C(=O)Nc2ccc(F)cc2)cc1 [TM61, N-(4-fluorophenyl)-4-((2-aminomethyl-3-fluoroallyl)oxy)-benzamide trifluoroacetate] | – | 0.5 nM | > 10000 nM | – | 99.7 ± 8.7% |
| NC/C(=C/F)COc1ccc(C(=O)N[C@H]2CCCc3ccccc32)cc1 [TM63-Z, (Z)-(S)-N-(1,2,3,4-tetrahydro-1-naphthyl)-4-((2-aminomethyl-3-fluoroallyl)oxy)-benzamide trifluoroacetate] | – | 4.4 ± 0.8 nM | > 10000 nM | – | – |
| Cc1ccc(N(C)C(=O)c2ccc(OCC(=CF)CN)cc2)cc1 [TM67, N-methyl-N-p-methylphenyl-4-((2-aminomethyl-3-fluoroallyl)oxy)-benzamide trifluoroacetate] | – | 11.5 ± 1.3 nM | > 30000 nM | – | – |
| Cc1csc(-c2ccc(OCC(=CF)CN)cc2)n1 [TM70, 2-(4-(4-methylthiazolyl-2-phenoxy)methyl)-3-fluoroallylamine trifluoroacetate] | – | 0.2 nM | > 30000 nM | – | – |
